The target in series [1] is T1, Rac1 activated by DH/PH domain of Guanine nucleotide Exchange Factor Tiam1 (Rac1/Tiam1) (Homo sapiens, UniProt P63000).
T1 construct: made in house; host or cells: E. coli BL21 Codon+RIL
The series is described as follows: Nucleotide binding assay: BODIPY-GTP binding to Rac1 activated by Tiam1 DH/PH. Type of series: biochemical. To be noted: for IC50: dose-response study; for inhibition at 50 µM: read-out: Rac1 % inhibition of BODIPY-GTP binding. The procedure:
(§1) Fluorescence of GTP analog BODIPY-GTP increases when it binds to small G proteins. This property was used to assess ability of compounds to inhibit nucleotide binding to Rac1, Rac1b and Cdc42. 2 μM GST-Rac1 and 6 μg His6-Tiam1-DH/PH were diluted in a buffer containing 20 mM Tris, 50 mM NaCl, and 1 mM MgCl2. This mixture was loaded in a 96-well plate. Fluorescence recording were started (λEx: 485 nm; λEm: 538 nm) using a spectrofluorimeter (Fluoroskan; Thermolab Systems). Assay was initiated by the addition of 2 μM BODIPY-GTP with or without various doses of test compound. Fluorescence values were recorded, and data were processed as follows: background fluorescence (unbound BODIPY-GTP) was retrieved from fluorescence values.
(§2) This assay allows determining whether compounds can inhibit the binding of a fluorescent nucleotide to recombinant small G proteins of interest. The effect of various alkaloid compounds on binding of BODIPY-GTP to Rac1 activated by DH/PH domain of Guanine nucleotide Exchange Factor Tiam1 (Rac1/Tiam1), Rac1b and Cdc42 is described below.

For series [2], the target named is T2, HEK293 cells overexpressing human Rac1b (Homo sapiens, UniProt P63000).
T2 construct: expressed in transfected cells; host or cells: HEK293
In words: Rac1b activation assay (G-LISA). The format is cell-based. The procedure: Rac1b activation assay: HEK293 cells overexpressing human Rac1b were plated in 100 mm diameter dishes and grown for 5 days in MEM medium supplemented with 10% FBS, L-Glutamine and antibiotics. Cells were then treated with 50 μM of compounds or the solvent for 5 minutes, and the GTP loading of Rac1b was measured using a Rac Activation Assay Kit (Cytoskeleton) according to manufacturer's recommendations. Briefly, this assay uses a 96-well plate coated with RBD domain of Rho-family effector proteins. […] The signal is then developed with OPD reagent.

The target of the next series is T3, Cdc42 (Homo sapiens, UniProt P60953).
T3 construct: GST (N); made in house; host or cells: E. coli BL21 Codon+RIL
The series is described as follows: Nucleotide binding assay: BODIPY-GTP binding to Cdc42. To be noted: for inhibition at 50 µM: read-out: Cdc42 % inhibition of BODIPY-GTP binding. The format is biochemical. The procedure: as §1, §2

The next series has as its system HCT116 cell line. The series is described as follows: Soft agar assay (anchorage-independent colony formation). Type of series: cell-based. To be noted: HCT116, 7 days. An excerpt: Colony formation in soft agar is the most widely used assay to evaluate anchorage-independent growth potential and represents one of the best in vitro assays that correlates strongly with in vivo tumorigenic cell growth potential. Normal cells require adherence and spreading onto a solid substratum in order to remain viable and proliferate. In contrast, cancer cell line HCT116 (ATCC clone number CCL-247) lost this requirement and therefore can form proliferating colonies of cells when suspended in a semisolid agar medium. The assay was performed in 24-well plates, using duplicates wells for each compound concentration. Briefly, a 0.5% Bacto™ Agar (BD Biosciences) bottom layer (prepared in HCT116 complete growth medium supplemented or not with the tested compound) was poured first and allowed to harden (0.3 ml per well). HCT116 were trypsinized to generate a uniform single cell suspension. Five×10^3 cells per well were resuspended in 0.3% agar supplemented with complete growth medium, with or without several compound concentrations to form the top layer (0.3 ml per well). HCT116 were allowed to grow for 7 days in these conditions and then analysed for colonies formation. Analysis was performed from pictures taken under a microscope that are representative from 2 different fields of the well. For each field, 2 different focal plans were taken and were merged using ImageJ software. The number of colonies were scored and colonies' size were measured. IC50 were determined for the number and size of colonies using GraphPad Prism (GraphPad) software. Data are mean values of 2 to 3 independent experiments.

For a further series, the system named is protein kinase C (PKC). The following applies: cited from earlier work.
Another series has as its target T4, Rac1b (Homo sapiens, UniProt P63000).
T4 construct: GST (N); made in house; host or cells: E. coli BL21 Codon+RIL
The series is described as follows: Nucleotide binding assay: BODIPY-GTP binding to Rac1b. Type of series: biochemical. To be noted: for IC50: dose-response study; for inhibition at 50 µM: read-out: Rac1b % inhibition of BODIPY-GTP binding; for selectivity for Rac1b: versus Rac1 or Cdc42. The procedure:
as §1, §2

The target of a further series is RhoA (Homo sapiens, UniProt P61586). The following applies: cited from earlier work.
The subject of a further series is NIH3T3 and PC-3 cells. To be noted: cited from earlier work.
Setting [3] is: HEK293, read-out: G-LISA % inhibition @ 50 μM.
The mark [4] stands for this setting: Homo sapiens, HCT-116, 168 h, read-out: Soft agar assay IC50, Clone Number.
[5] abbreviates: Homo sapiens, HCT-116, 168 h, read-out: Soft agar assay IC50, Clone Size.
The mark [6] stands for this setting: final concentration of 50 μM, Rac1/Tiam1.
[7] abbreviates: HEK293, 50 μM, 5 minutes, GTP loading of Rac1b, read-out: G-LISA % inhibition @ 50 μM.

Entries after “also recorded” stand apart in the source; their conditions may differ. Counter-ions that a name gives are not always drawn. Like-named read-outs stand apart in the source and are kept apart here.

In general, IC50 refers to the concentration that gives 50% inhibition. Broadly, the inhibition is the share of the control response that was lost under treatment. Broadly, the melting point is the temperature of the solid-liquid transition.

T3 sequence (P60953 whole entry, species assumed): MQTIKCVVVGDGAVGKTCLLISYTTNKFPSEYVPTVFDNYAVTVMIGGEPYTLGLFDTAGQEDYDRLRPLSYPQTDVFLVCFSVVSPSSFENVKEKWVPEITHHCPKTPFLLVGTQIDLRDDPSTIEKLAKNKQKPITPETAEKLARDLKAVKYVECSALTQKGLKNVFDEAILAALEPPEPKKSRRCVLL
Sequence of RhoA (P61586 whole entry, species assumed): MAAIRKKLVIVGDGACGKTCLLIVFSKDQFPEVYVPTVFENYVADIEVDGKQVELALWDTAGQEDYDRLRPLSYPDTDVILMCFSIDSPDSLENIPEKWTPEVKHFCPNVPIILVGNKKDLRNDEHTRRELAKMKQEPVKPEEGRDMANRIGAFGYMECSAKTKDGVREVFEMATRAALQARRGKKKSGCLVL

As to `C[n+]1cc2c3c(ccc2c2ccc4cc5c(cc4c21)OCO5)OCO3.O.[Cl-]` [Compound 13, 13-methyl-[1,3]benzodioxolo[5,6-c]-1,3-dioxolo[4,5-i]phenanthridinium chloride hydrate, reference compound], the IC50 in series [1] was 57.8 ± 4.3 µM; on Cdc42 (dose-response study) it was 32.1 ± 0.7 µM; with HCT116 cell line (setting [4]) it was 1.9 ± 0.6 µM; in the series with HCT116 cell line (setting [5]) it was 1.5 ± 0.2 µM; at Rac1b, 4.6 ± 0.4 µM. For the same compound, the inhibition at 50 µM in series [1] was found to be 45 ± 4%; in series [2] (setting [3]), 50 ± 3%; on Cdc42, 63 ± 2%; at Rac1b, 100%. Also, the “activity against PKC” value with protein kinase C (PKC) is 217 μm. The “fold more active on Rac1b than on Rac1/Tiam1” value on Rac1b (from IC50s) is 13 fold. The “times more active on Rac1b than on Cdc42” value on Rac1b (from IC50s) is reported as 6 times. For the same compound, the “selectivity for Rac1b” value on Rac1b is “some significant selectivity for Rac1b”.

`COc1ccc2cc3[n+](cc2c1OC)CCc1cc(O)c(O)cc1-3` [Compound 4, 9,10-dimethoxy-5,6-dihydro-isoquino[3,2-a]isoquinolinylium-2,3-diol chloride]: the IC50 in series [1] was 58.6 ± 16.9 µM; on Rac1b, 23.8 ± 2.9 µM. Besides, the inhibition at 50 µM in [1] is 39 ± 2%; in series [2] (setting [3]), 30 ± 5%; on Cdc42 (final concentration of 50 μM), 31 ± 9%; at Rac1b, 54 ± 2%.

In the case of `COc1cc2cc(-c3cccc(N)c3)nc(C)c2cc1OC` [Compound 28, 3-(6,7-Dimethoxy-1-methylisoquinolin-3-yl)aniline dihydrochloride], the inhibition at 50 µM in [1] (setting [6]) came out at 13 ± 2%; in series [2] (setting [7]), 27 ± 4%; at Cdc42 (final concentration of 50 μM) it was 3 ± 5%; at Rac1b (final concentration of 50 μM), 20 ± 2%.

On to `Cl.Oc1cc2c(cc1O)CN(Cc1cccc(O)c1O)CC2` [Compound 19, 2-(2,3-Dihydroxybenzyl)-6,7-dihydroxy-1,2,3,4-tetrahydroisoquinolinium chloride], for which the melting point came out at 178.8 °C. In addition, in series [1] (setting [6]), the inhibition at 50 µM was found to be 9 ± 2%. On Cdc42 (final concentration of 50 μM), the inhibition at 50 µM came to 17 ± 3%. For the same compound, the inhibition at 50 µM on Rac1b (final concentration of 50 μM) came out at 19 ± 3%.

As to `COc1ccc2c(c[n+](C)c3c4cc5c(cc4ccc23)OCO5)c1OC.[Cl-]` [Compound 14, 1,2-dimethoxy-N-methyl[1,3]benzodioxolo[5,6-c]phenanthridinium chloride, reference compound], the “maximum inhibition on Rac1/Tiam1” value in series [1] (dose-response study (1-2-5-10-25-50-75-100 μM)) is “around 25%”. Moreover, the inhibition at 50 µM in series [1] (setting [6]) worked out at 25 ± 6%; in [2] (setting [7]), 40 ± 10%; on Cdc42 (final concentration of 50 μM) it was 35 ± 10%; at Rac1b (final concentration of 50 μM), 100%. Further, the IC50 was 2.4 ± 0.2 µM in the series on HCT116 cell line (setting [4]), 2 ± 0.3 µM in the series with HCT116 cell line (setting [5]) and 6.7 ± 0.9 µM on Rac1b. The “activity against PKC” value with protein kinase C (PKC) was 1 μm. In addition, the “selectivity for Rac1b” value on Rac1b is reported as “highly selective for Rac1b; also recorded: some significant selectivity for Rac1b”.

Regarding `COc1cc2cc(-c3cccc(NS(C)(=O)=O)c3)nc(C)c2cc1OC` [Compound 30, N-(3-(6,7-Dimethoxy-1-methylisoquinolin-3-yl)phenyl)methanesulfonamide hydrochloride], the inhibition at 50 µM in series [1] (setting [6]) was found to be 9 ± 3%; in series [2] (setting [7]), 12 ± 2%; on Cdc42 (final concentration of 50 μM), 4 ± 4%; on Rac1b (final concentration of 50 μM) it was 16 ± 2%.

As for `COc1cc2cc(-c3cccc(C(C)=O)c3)nc(C)c2cc1OC` [Compound 24, 1-(3-(6,7-Dimethoxy-1-methylisoquinolin-3-yl)phenyl)ethanone hydrochloride], the inhibition at 50 µM in [1] (setting [6]) stood at 18 ± 3%; in [2] (setting [7]), 19 ± 5%; on Cdc42 (final concentration of 50 μM), 7 ± 2%; on Rac1b (final concentration of 50 μM), 27 ± 2%.

Consider `COc1cc(-c2cc3cc(OC)c(OC)cc3c(C)n2)ccc1O` [Compound 47, 4-(6,7-Dimethoxy-1-methylisoquinolin-3-yl)-2-methoxyphenol hydrochloride], for which the inhibition at 50 µM stood at 15 ± 3% in series [1] (setting [6]), 13 ± 8% in series [2] (setting [7]), 17 ± 1% at Cdc42 (final concentration of 50 μM) and 18 ± 1% on Rac1b (final concentration of 50 μM).

Regarding `CCN(CC)CCCC(C)Nc1nc(C)cc(Nc2ccc3nc(C)cc(N)c3c2)n1` (centres unmarked) [NSC 23766, reference compound], the “effect on RhoA activation” value at RhoA was “no effect”. Also, the “effective dose, Rac1-mediated cellular functions” value with NIH3T3 and PC-3 cells was 50 to 100 µM. Also, the IC50 is 64.2 ± 4.8 µM in the series with HCT116 cell line (read-out: Soft agar assay IC50, Clone Number) and 27.9 ± 5 µM in the series on HCT116 cell line (read-out: Soft agar assay IC50, Clone Size).

(Values after US20100120810A1, “COMPOUNDS AND METHODS FOR MODULATING RHO GTPASES” (priority 2007, published 2010).)
